Target: P. falciparum apicoplast DNA polymerase (Pf-apPOL) (Plasmodium falciparum, UniProt Q8ILY1)
Assay: Fluorescence-based high-throughput DNA polymerase assay (molecular beacon), primary screen and dose-response
Assay type: biochemical
Details: for DNA Pol: 90 min, 10 µM; for % inhibition apPOL 180' 2.5 / % inhibition apPOL 180' 5 / % inhibition apPOL 180' 10 / % inhibition apPOL 180' 20 / % inhibition apPOL 180' 40 / % inhibition apPOL 180' 80: read at 180'
Summary of the method: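 Single-point screening used 10 µM compound with 20 nM polymerase, 20 nM hairpin substrate and 6 µM dNTPs for 90 min at 25 °C. Confirmatory titrations (2.5–80 µM) followed fluorescence at three times, and IC50 was derived from a fit including a cooperativity term n.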

Sequence of P. falciparum apicoplast DNA polymerase (Pf-apPOL) (Q8ILY1 entry or part of it): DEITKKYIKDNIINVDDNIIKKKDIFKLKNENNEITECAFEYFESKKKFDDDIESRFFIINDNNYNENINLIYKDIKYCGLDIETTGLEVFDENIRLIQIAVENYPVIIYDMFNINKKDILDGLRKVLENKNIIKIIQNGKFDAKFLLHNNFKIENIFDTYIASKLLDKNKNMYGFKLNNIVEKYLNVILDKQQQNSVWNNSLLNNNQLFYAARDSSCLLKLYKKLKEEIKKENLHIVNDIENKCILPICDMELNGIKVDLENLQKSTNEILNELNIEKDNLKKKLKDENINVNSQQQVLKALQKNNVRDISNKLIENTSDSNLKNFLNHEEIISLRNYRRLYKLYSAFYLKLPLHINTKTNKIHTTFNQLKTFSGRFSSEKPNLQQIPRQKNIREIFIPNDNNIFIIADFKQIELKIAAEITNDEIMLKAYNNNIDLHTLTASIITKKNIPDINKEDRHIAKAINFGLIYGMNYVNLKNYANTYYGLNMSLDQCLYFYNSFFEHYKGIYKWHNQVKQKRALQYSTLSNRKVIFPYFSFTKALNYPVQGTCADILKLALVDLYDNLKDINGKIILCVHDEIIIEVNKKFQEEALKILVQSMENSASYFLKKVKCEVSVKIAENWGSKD

With `Cc1cccc(-c2noc(C(=O)NNC(=O)C(Cl)(Cl)Cl)n2)c1` [KU0266208] the “DNA Pol” value (186 hits, DNA Pol (screen value), unit not given) was 74, the “DNA Pol” value ('DNA Pol' (screen value), unit not given) was 74 and the “% inhibition Apo pol 10' 2.5” value (DRC-1, read at 10', concentration 2.5) was 9.201%. For the same compound, the “% inhibition Apo pol 10' 5” value (DRC-1, read at 10', concentration 5) was 9.396%, the “% inhibition Apo pol 10' 10” value (DRC-1, read at 10', concentration 10) was 14.6387% and the “% inhibition Apo pol 10' 20” value (DRC-1, read at 10', concentration 20) was 23.1394%. For the same compound, the “% inhibition Apo pol 10' 40” value (DRC-1, read at 10', concentration 40) was 47.3506%, the “% inhibition Apo pol 10' 80” value (DRC-1, read at 10', concentration 80) was 74.0124% and the “% inhibition Apol 90' 2.5” value (DRC-1, read at 90', concentration 2.5) was -1.588%. For the same compound, the “% inhibition Apol 90' 5” value (DRC-1, read at 90', concentration 5) was -0.4833%, the “% inhibition Apol 90' 10” value (DRC-1, read at 90', concentration 10) was 4.634% and the “% inhibition Apol 90' 20” value (DRC-1, read at 90', concentration 20) was 14.9894%. The “% inhibition Apol 90' 40” value (DRC-1, read at 90', concentration 40) was 39.8547%, the “% inhibition Apol 90' 80” value (DRC-1, read at 90', concentration 80) was 66.9528% and the “% inhibition apPOL 180' 2.5” value (DRC-1, concentration 2.5) was -5.775%. For the same compound, the “% inhibition apPOL 180' 5” value (DRC-1, concentration 5) was -5.2438%, the “% inhibition apPOL 180' 10” value (DRC-1, concentration 10) was -0.4994% and the “% inhibition apPOL 180' 20” value (DRC-1, concentration 20) was 8.812%. For the same compound, the “% inhibition apPOL 180' 40” value (DRC-1, concentration 40) was 34.7216%, the “% inhibition apPOL 180' 80” value (DRC-1, concentration 80) was 64.1117% and the “% inhibition Apo pol 5'” value (DRC-2, concentration 10) was 11%. For the same compound, the “% inhibition Apol 40'” value (DRC-2, concentration 10) was 11%, the “% inhibition Apol 40'” value (DRC-2, concentration 20) was 24% and the “% inhibition ApPOL 90'” value (DRC-2, concentration 20) was 24%. For the same compound, the “% inhibition Apo pol 5' 2.5” value (DRC-2, read at 5', concentration 2.5) was 4.48%, the “% inhibition Apo pol 5' 5” value (DRC-2, read at 5', concentration 5) was 5.63% and the “% inhibition Apo pol 5' 10” value (DRC-2, read at 5', concentration 10) was 11%. For the same compound, the “% inhibition Apo pol 5' 20” value (DRC-2, read at 5', concentration 20) was 21%, the “% inhibition Apo pol 5' 40” value (DRC-2, read at 5', concentration 40) was 36% and the “% inhibition Apo pol 5' 80” value (DRC-2, read at 5', concentration 80) was 49%. The “% inhibition Apol 40' 2.5” value (DRC-2, read at 40', concentration 2.5) was 4.33%, the “% inhibition Apol 40' 5” value (DRC-2, read at 40', concentration 5) was 4.64% and the “% inhibition Apol 40' 10” value (DRC-2, read at 40', concentration 10) was 11%. The “% inhibition Apol 40' 20” value (DRC-2, read at 40', concentration 20) was 24%, the “% inhibition Apol 40' 40” value (DRC-2, read at 40', concentration 40) was 44% and the “% inhibition Apol 40' 80” value (DRC-2, read at 40', concentration 80) was 58%. The “% inhibition ApPOL 90' 2.5” value (DRC-2, read at 90', concentration 2.5) was 3%, the “% inhibition ApPOL 90' 5” value (DRC-2, read at 90', concentration 5) was 2.46% and the “% inhibition ApPOL 90' 10” value (DRC-2, read at 90', concentration 10) was 10%. The “% inhibition ApPOL 90' 20” value (DRC-2, read at 90', concentration 20) was 24%, the “% inhibition ApPOL 90' 40” value (DRC-2, read at 90', concentration 40) was 45% and the “% inhibition ApPOL 90' 80” value (DRC-2, read at 90', concentration 80) was 60%. The “% inhibition apPOL 180' 2.5” value (DRC-2, concentration 2.5) was -1%, the “% inhibition apPOL 180' 5” value (DRC-2, concentration 5) was 1.1% and the “% inhibition apPOL 180' 10” value (DRC-2, concentration 10) was 5.71%. The “% inhibition apPOL 180' 20” value (DRC-2, concentration 20) was 20%, the “% inhibition apPOL 180' 40” value (DRC-2, concentration 40) was 42% and the “% inhibition apPOL 180' 80” value (DRC-2, concentration 80) was 59%.

With `O=C(NNC(=O)c1ccc(Cl)cc1)C(=O)NNC(=O)c1ccc(Cl)cc1` [Molecule 25, O=C(C(=O)NNC(=O)c1ccc(cc1)Cl)NNC(=O)c1ccc(cc1)Cl] the “DNA Pol” value ('DNA Pol' of the 186 hits list (primary screen value)) was 75, the “DNA Pol” value (DNA Pol (primary screen value)) was 75 and the “% inhibition Apo pol 10'” value (DRC-1, concentration 2.5) was 0.1123%. The “% inhibition Apo pol 10'” value (DRC-1, concentration 5) was 29.8674%, the “% inhibition Apo pol 10'” value (DRC-1, concentration 10) was 53.2072% and the “% inhibition Apo pol 10'” value (DRC-1, concentration 20) was 61.5061%. For the same compound, the “% inhibition Apo pol 10'” value (DRC-1, concentration 40) was 64.1413%, the “% inhibition Apo pol 10'” value (DRC-1, concentration 80) was 75.0048% and the “% inhibition Apol 90'” value (DRC-1, concentration 2.5) was -1.798%. For the same compound, the “% inhibition Apol 90'” value (DRC-1, concentration 5) was 28.7698%, the “% inhibition Apol 90'” value (DRC-1, concentration 10) was 48.8169% and the “% inhibition Apol 90'” value (DRC-1, concentration 20) was 54.9619%. For the same compound, the “% inhibition Apol 90'” value (DRC-1, concentration 40) was 57.5316%, the “% inhibition Apol 90'” value (DRC-1, concentration 80) was 69.6376% and the “% inhibition apPOL 180'” value (DRC-1, concentration 2.5) was -4.906%. The “% inhibition apPOL 180'” value (DRC-1, concentration 5) was 25.5591%, the “% inhibition apPOL 180'” value (DRC-1, concentration 10) was 45.9729% and the “% inhibition apPOL 180'” value (DRC-1, concentration 20) was 50.6657%. For the same compound, the “% inhibition apPOL 180'” value (DRC-1, concentration 40) was 53.135%, the “% inhibition apPOL 180'” value (DRC-1, concentration 80) was 64.4119% and the “% inhibition Apo pol 5'” value (DRC-2, concentration 2.5) was 2.6%. The “% inhibition Apo pol 5'” value (DRC-2, concentration 5) was 10%, the “% inhibition Apo pol 5'” value (DRC-2, concentration 10) was 29% and the “% inhibition Apo pol 5'” value (DRC-2, concentration 20) was 45%. The “% inhibition Apo pol 5'” value (DRC-2, concentration 40) was 49%, the “% inhibition Apo pol 5'” value (DRC-2, concentration 80) was 51% and the “% inhibition Apol 40'” value (DRC-2, concentration 2.5) was 2%. For the same compound, the “% inhibition Apol 40'” value (DRC-2, concentration 5) was 13%, the “% inhibition Apol 40'” value (DRC-2, concentration 10) was 35% and the “% inhibition Apol 40'” value (DRC-2, concentration 20) was 54%. For the same compound, the “% inhibition Apol 40'” value (DRC-2, concentration 40) was 58%, the “% inhibition Apol 40'” value (DRC-2, concentration 80) was 62% and the “% inhibition ApPOL 90'” value (DRC-2, concentration 2.5) was 0.656%. For the same compound, the “% inhibition ApPOL 90'” value (DRC-2, concentration 5) was 13%, the “% inhibition ApPOL 90'” value (DRC-2, concentration 10) was 36% and the “% inhibition ApPOL 90'” value (DRC-2, concentration 20) was 54%. The “% inhibition ApPOL 90'” value (DRC-2, concentration 40) was 60%, the “% inhibition ApPOL 90'” value (DRC-2, concentration 80) was 64% and the “% inhibition apPOL 180'” value (DRC-2, concentration 2.5) was -2.65%. For the same compound, the “% inhibition apPOL 180'” value (DRC-2, concentration 5) was 7.39%, the “% inhibition apPOL 180'” value (DRC-2, concentration 10) was 30% and the “% inhibition apPOL 180'” value (DRC-2, concentration 20) was 48%. For the same compound, the “% inhibition apPOL 180'” value (DRC-2, concentration 40) was 55% and the “% inhibition apPOL 180'” value (DRC-2, concentration 80) was 62%.

With `Cc1ccc(NC(=O)Cn2ccc3c(=O)[nH]ccc32)cc1F` [Molecule 48, O=C(Cn1ccc2c1cc[nH]c2=O)Nc1ccc(c(c1)F)C] the “DNA Pol” value ("DNA Pol" of the 186 hits list (screen value)) was 27, the “% inhibition Apo pol 10'” value (DRC-1, concentration 2.5) was 0.4313% and the “% inhibition Apo pol 10'” value (DRC-1, concentration 5) was 4.695%. For the same compound, the “% inhibition Apo pol 10'” value (DRC-1, concentration 10) was 32.4815%, the “% inhibition Apo pol 10'” value (DRC-1, concentration 20) was 59.9779% and the “% inhibition Apo pol 10'” value (DRC-1, concentration 40) was 70.0783%. For the same compound, the “% inhibition Apo pol 10'” value (DRC-1, concentration 80) was 79.5186%, the “% inhibition Apol 90'” value (DRC-1, concentration 2.5) was -2.985% and the “% inhibition Apol 90'” value (DRC-1, concentration 5) was -1.632%. The “% inhibition Apol 90'” value (DRC-1, concentration 10) was 21.1063%, the “% inhibition Apol 90'” value (DRC-1, concentration 20) was 47.267% and the “% inhibition Apol 90'” value (DRC-1, concentration 40) was 60.3661%. The “% inhibition Apol 90'” value (DRC-1, concentration 80) was 79.6602%, the “% inhibition apPOL 180'” value (DRC-1, concentration 2.5) was -5.068% and the “% inhibition apPOL 180'” value (DRC-1, concentration 5) was -4.79%. For the same compound, the “% inhibition apPOL 180'” value (DRC-1, concentration 10) was 10.5149%, the “% inhibition apPOL 180'” value (DRC-1, concentration 20) was 31.5724% and the “% inhibition apPOL 180'” value (DRC-1, concentration 40) was 45.3289%. For the same compound, the “% inhibition apPOL 180'” value (DRC-1, concentration 80) was 73.7679%, the “% inhibition Apo pol 5'” value (DRC-2, concentration 2.5) was -5.29% and the “% inhibition Apo pol 5'” value (DRC-2, concentration 5) was 3%. For the same compound, the “% inhibition Apo pol 5'” value (DRC-2, concentration 10) was 22%, the “% inhibition Apo pol 5'” value (DRC-2, concentration 20) was 44% and the “% inhibition Apo pol 5'” value (DRC-2, concentration 40) was 46%. For the same compound, the “% inhibition Apo pol 5'” value (DRC-2, concentration 80) was 38%, the “% inhibition Apol 40'” value (DRC-2, concentration 2.5) was -4.56% and the “% inhibition Apol 40'” value (DRC-2, concentration 5) was 4%. For the same compound, the “% inhibition Apol 40'” value (DRC-2, concentration 10) was 23%, the “% inhibition Apol 40'” value (DRC-2, concentration 20) was 57% and the “% inhibition Apol 40'” value (DRC-2, concentration 40) was 65%. The “% inhibition Apol 40'” value (DRC-2, concentration 80) was 62%, the “% inhibition ApPOL 90'” value (DRC-2, concentration 2.5) was -6.53% and the “% inhibition ApPOL 90'” value (DRC-2, concentration 5) was 2.25%. For the same compound, the “% inhibition ApPOL 90'” value (DRC-2, concentration 10) was 21%, the “% inhibition ApPOL 90'” value (DRC-2, concentration 20) was 56% and the “% inhibition ApPOL 90'” value (DRC-2, concentration 40) was 67%. The “% inhibition ApPOL 90'” value (DRC-2, concentration 80) was 67%, the “% inhibition apPOL 180'” value (DRC-2, concentration 2.5) was -10% and the “% inhibition apPOL 180'” value (DRC-2, concentration 5) was -4%. The “% inhibition apPOL 180'” value (DRC-2, concentration 10) was 7%, the “% inhibition apPOL 180'” value (DRC-2, concentration 20) was 49% and the “% inhibition apPOL 180'” value (DRC-2, concentration 40) was 65%. The “% inhibition apPOL 180'” value (DRC-2, concentration 80) was 69% and the “DNA Pol” value (primary screen value, DNA Pol) was 27.
